Values joined by “and” are separate entries in the source; they are usually repeats but may differ in a detail not shown here. Identical values can stand only once. Inconclusive results and toxic doses are left out.
Tested on: L1210 leukemia ip in BDF1 mice, survival T/C
Experiment: NCI In Vivo Anticancer Drug Screen. Data for tumor model L1210 Leukemia (intraperitoneal) in B6D2F1 (BDF1) mice
Settings: endpoint: mean survival time, higher = longer survival
In short: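 Survival endpoint. Drug-treated group vs vehicle group, expressed as T divided by C. Tumor passaged by transplantation.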

OC(CBr)C(O)C(O)C(O)CBr (centres undefined)
T/C (dose: 266.0 mg/kg/injection, schedule: Q01DX001 (ip), vehicle: acetone): 189 % of control
T/C (dose: 266.0 mg/kg/injection, schedule: Q01DX001 (ip), vehicle: saline): 102 % of control
T/C (dose: 266.0 mg/kg/injection, schedule: Q01DX009 (ip), vehicle: acetone): 110 % of control
T/C (dose: 266.0 mg/kg/injection, schedule: Q04DX003 (ip), vehicle: acetone): 108 % of control
T/C (dose: 266.0 mg/kg/injection, schedule: Q04DX003 (ip), vehicle: saline): 100 % of control and 98 % of control
T/C (dose: 266.0 mg/kg/injection, schedule: Q08DX002 (ip), vehicle: acetone): 102 % of control
T/C (dose: 266.0 mg/kg/injection, schedule: Q08DX002 (ip), vehicle: saline): 100 % of control
T/C (dose: 360.0 mg/kg/injection, schedule: Q01DX009 (ip), vehicle: saline): 104 % of control
T/C (dose: 400.0 mg/kg/injection, schedule: Q01DX001 (ip), vehicle: acetone): 110 % of control
T/C (dose: 400.0 mg/kg/injection, schedule: Q01DX001 (ip), vehicle: other): 105 % of control
T/C (dose: 400.0 mg/kg/injection, schedule: Q01DX001 (ip), vehicle: saline): 101 % of control and 104 % of control
T/C (dose: 400.0 mg/kg/injection, schedule: Q01DX009 (ip), vehicle: acetone): 113 % of control
T/C (dose: 400.0 mg/kg/injection, schedule: Q01DX009 (ip), vehicle: other): 97 % of control
T/C (dose: 400.0 mg/kg/injection, schedule: Q04DX003 (ip), vehicle: acetone): 112 % of control
T/C (dose: 400.0 mg/kg/injection, schedule: Q04DX003 (ip), vehicle: saline): 102 % of control
T/C (dose: 400.0 mg/kg/injection, schedule: Q08DX002 (ip), vehicle: acetone): 103 % of control
T/C (dose: 400.0 mg/kg/injection, schedule: Q08DX002 (ip), vehicle: saline): 102 % of control
T/C (dose: 480.0 mg/kg/injection, schedule: Q01DX009 (sc), vehicle: carboxymethylcellulose (CMC)): 93 % of control
T/C (dose: 480.0 mg/kg/injection, schedule: Q## X008 (ip), vehicle: carboxymethylcellulose (CMC)): 94 % of control
T/C (dose: 500.0 mg/kg/injection, schedule: Q01DX001 (ip), vehicle: carboxymethylcellulose (CMC)): 96 % of control and 100 % of control and 93 % of control
T/C (dose: 500.0 mg/kg/injection, schedule: Q01DX009 (ip), vehicle: carboxymethylcellulose (CMC)): 105 % of control
T/C (dose: 500.0 mg/kg/injection, schedule: Q01DX015 (ip), vehicle: saline): 110 % of control
T/C (dose: 500.0 mg/kg/injection, schedule: Q01DX Z (ip), vehicle: carboxymethylcellulose (CMC)): 94 % of control and 104 % of control
T/C (dose: 500.0 mg/kg/injection, schedule: Q02DX005 (ip), vehicle: carboxymethylcellulose (CMC)): 108 % of control
T/C (dose: 500.0 mg/kg/injection, schedule: Q04DX003 (ip), vehicle: carboxymethylcellulose (CMC)): 95 % of control
T/C (dose: 540.0 mg/kg/injection, schedule: Q01DX009 (ip), vehicle: saline): 111 % of control
T/C (dose: 600.0 mg/kg/injection, schedule: Q01DX001 (ip), vehicle: acetone): 100 % of control
T/C (dose: 600.0 mg/kg/injection, schedule: Q01DX001 (ip), vehicle: saline): 104 % of control
T/C (dose: 600.0 mg/kg/injection, schedule: Q01DX009 (ip), vehicle: acetone): 113 % of control
T/C (dose: 600.0 mg/kg/injection, schedule: Q04DX003 (ip), vehicle: acetone): 123 % of control
T/C (dose: 600.0 mg/kg/injection, schedule: Q04DX003 (ip), vehicle: saline): 102 % of control
T/C (dose: 600.0 mg/kg/injection, schedule: Q08DX002 (ip), vehicle: acetone): 103 % of control
T/C (dose: 600.0 mg/kg/injection, schedule: Q08DX002 (ip), vehicle: saline): 102 % of control
T/C (dose: 800.0 mg/kg/injection, schedule: Q01DX001 (ip), vehicle: other): 109 % of control
T/C (dose: 900.0 mg/kg/injection, schedule: Q01DX001 (ip), vehicle: acetone): 108 % of control
T/C (dose: 900.0 mg/kg/injection, schedule: Q01DX001 (ip), vehicle: saline): 105 % of control
T/C (dose: 900.0 mg/kg/injection, schedule: Q04DX003 (ip), vehicle: acetone): 100 % of control
T/C (dose: 900.0 mg/kg/injection, schedule: Q04DX003 (ip), vehicle: saline): 105 % of control
T/C (dose: 900.0 mg/kg/injection, schedule: Q08DX002 (ip), vehicle: acetone): 100 % of control
T/C (dose: 900.0 mg/kg/injection, schedule: Q08DX002 (ip), vehicle: saline): 94 % of control
T/C (dose: 1000.0 mg/kg/injection, schedule: Q01DX001 (ip), vehicle: carboxymethylcellulose (CMC)): 100 % of control and 104 % of control and 94 % of control
T/C (dose: 1000.0 mg/kg/injection, schedule: Q01DX015 (ip), vehicle: saline): 121 % of control
T/C (dose: 1000.0 mg/kg/injection, schedule: Q04DX003 (ip), vehicle: carboxymethylcellulose (CMC)): 113 % of control
T/C (dose: 1440.0 mg/kg/injection, schedule: Q## X003 (oral), vehicle: carboxymethylcellulose (CMC)): 96 % of control

Source: PubChem BioAssay AID248 (DTP/NCI, 2004)
